# Assay results published in patent US20250352676A1, “N-Cyclopropyl-1-(4-(4-(Fluoro-18f)Phenyl)Pyrimidin-5-Yl)-N-Methylpiperidine- 4-Carboxamide and Uses in PET Imaging” (Emory University, priority 2022, published 2025).
# Like-named read-outs stand apart in the source and are kept apart here.
# Tests used:
# [1] = target: T1, CYP46A1 (Mus musculus, UniProt Q9WVK8); assay: Saturation binding studies with brain homogenates; design: species or system rodent
# Experimental: Experiments were performed to determine whether a targeted PET imaging probe would allow the quantification of cholesterol metabolism in the living brain, ultimately paving the way for mechanistic studies on brain cholesterol metabolism in humans. […] The tracer distribution matched closely with the Allen Brain Atlas distribution of CYP46A1 expression data in the mouse brain. Quantification of CYP46A1 by Western blot analysis in the same brain regions confirmed that tracer binding patterns were in concert with CYP46A1 expression across all tested brain regions. Saturation binding studies were performed to determine the dissociation constant (KD) of the probe as well as to assess the amount of available CYP46A1 protein (Bmax) in selected brain regions.
# [2] = system: major CNS targets, including common G protein-coupled receptors, ion channels, enzymes, and transporters; assay: Pharmacological screening on major CNS targets; settings: testing concentration of 10 μM
# [3] = Incubation with mouse liver microsomes (radiodefluorination); type: in vitro ADME
# [4] = Incubation with rat liver microsomes (radiodefluorination); type: in vitro ADME
# [5] = type: in vitro ADME, VHP
# Experimental: (§1) PET imaging studies were conducted by intravenous injection of 18F-CHL-2205 to rats. […] Greater than 99% of the brain signal was attributed to the intact parent tracer. The brain signal was substantially devoid of interference by radiometabolites. By ex vivo studies, greater than 90% of the signal in the brain was specific at 15, 30, and 45 min after injection.
# [6] = Incubation with human liver microsomes (radiodefluorination); type: in vitro ADME
# [7] = target: T2, CYP46A1 (Rattus norvegicus, UniProt A0ACM8QFK4); assay: PET imaging and ex vivo brain studies after intravenous injection to rats; type: in vivo
# T2 construct: from tissue; host or cells: brain of living rats
# Experimental: as §1
# (§2) CD1, 3×Tg-AD mice and respective controls (sex: female, age: 9 to 13 months), as well as rats were purchased from established commercial vendors and kept under a 12-hour light/12-hour dark cycle, with ad libitum food and water. Animals were allowed to acclimatize for at least 1 week before the start of the experimental procedures. Mice and rats were anesthetized with isoflurane and scanned in a μPET/computed tomography (CT) scanner for 60 min after tail-vein injection of 18F-CHL-2205. Data were reconstructed in user-defined time frames. Time-activity curves (TACs) were calculated with predefined regions of interest. Results are presented as area under the curve (AUC) from the respective TACs of SUVs, indicating the decay-corrected radioactivity per cubic centimeter, divided by the injected dose per gram of body weight.
# [8] = Dosimetry experiments; type: in vivo
# [9] = target: T3, human CYP46A1 (hCYP46A1) (Homo sapiens, UniProt Q9Y6A2); assay: Cell uptake studies in HEK cells overexpressing hCYP46A1; type: cell-based
# T3 construct: expressed in transfected cells; host or cells: HEK cells (HEK-CYP46A1)
# Experimental: Cell uptake studies were conducted with transfected human embryonic kidney (HEK) cells overexpressing human CYP46A1 (hCYP46A1) and respective controls.
# Cell uptake assays were conducted using hCYP46A1 enzyme-HEK cell line (HEK-CYP46A1) and HEK control cells were cultured in Dulbecco's modified Eagle's medium (DMEM) supplemented with 10% fetal bovine serum and antibiotics (0.1 mg/ml streptomycin and 100 IU/ml penicillin). Cells were kept under standard conditions at 37° C. and 5% CO2 and subsequently subpassaged using a solution of 0.25% trypsin and 0.02% EDTA. For cell uptake measurements, HEK-CYP46A1 and HEK control cells were seeded into a 24-well plate at a density of 2×10^5 cells per well the day before the experiment. The medium was replaced with fresh DMEM including ^18F-CHL-2205 (ca. 74 kBq per well) and incubated at 37° C. for 15, 30, and 45 min. The supernatant was collected, and the cells were washed twice with cold 1×phosphate-buffered salinc (PBS) and then harvested by adding 200 μl of 1N NaOH followed by additional two times rinsing with 1×PBS. The blocking assay was performed with the HEK-CYP46A1 cells. […] Supernatant and cell suspensions including 1×PBS from each wash step were collected and then measured using a gamma counter, whereas cell uptake was expressed as the percentage of the added dose after decay correction.
# [10] = target: T4, CYP46A1 (Homo sapiens, UniProt Q9Y6A2); assay: Clinical PET study in healthy volunteers; type: in vivo; design: from tissue; host or cells: brain of living healthy volunteers; settings: CYP46A1-rich regions
# Experimental: Eight healthy participants underwent a PET scan with 18F-CHL-2205, followed by a magnetic resonance imaging (MRI) scan for anatomical orientation. Because of the physical half-life of fluorine-18 (109.8 min), the tracer was produced on the day of the experiment in a designated hot cell that provided shielding from radiation exposure and was equipped with an automated synthesis module. PET scans were performed for a duration of 90 min, and the data were subsequently reconstructed to allow the assessment of tracer uptake as a surrogate for CYP46A1 abundancy and cholesterol metabolism.
# Experiments were performed to determine whether CYP46A1-targeted PET was sensitive to sex differences in brain cholesterol metabolism. […] Conversely, there was no difference in tracer uptake for low-target density regions such as the cerebellum and brainstem. These findings imply that considerable sex differences in brain cholesterol metabolism via CYP46A1 exist in humans.
# An open-label clinical study to evaluate the tolerability, safety, and tracer performance characteristics of 18F-CHL-2205 in healthy volunteers (four men and four women, 22 to 31 years of age) was conducted. […] Volumes of distribution were further determined by Logan graphical analysis and were used to calculate binding potentials. […]
# [11] = target: T1, CYP46A1; assay: Brain binding in Cyp46A1 knockout versus control mice; design: from tissue; host or cells: mouse brain (Cyp46A1+/+ controls; 3xTg-AD mice and controls)
# Source text: A consideration in CNS-targeted PET constitutes the ability of the tracer to selectivity bind to a target protein while lacking interactions with other abundant brain proteins.
# [12] = target: T1, CYP46A1; assay: PET imaging in 3xTg-AD mice and controls; type: in vivo; design: from tissue; host or cells: mouse brain (Cyp46A1+/+ controls; 3xTg-AD mice and controls); settings: baseline, intravenous administration
# Experimental: Tracer binding was assessed and validated in the 3xTg-AD mouse model. […] Hippocampal uptake of the CYP46A1 tracer was compared between 3xTg-AD mice and respective controls.
# as §2
# [13] = target: T4, CYP46A1; assay: Competitive displacement of 18F-CHL-2205; type: binding
# [14] = target: T5, CYP46A1 (Macaca mulatta, UniProt I2CYF7); assay: In vitro autoradiography of NHP brain; type: binding, NHPs; design: from tissue; host or cells: NHP brain sections; settings: excess blocker
# Experimental: PET imaging experiments were conducted in non-human primates (NHPs). Consistent with observations from rodent data, the signal intensity of tracer binding correlated with high abundancy regions for CYP46A1, including the putamen, caudate, and limbic cortical regions such as superficial layers of temporal, insular, and cingulate cortex, as evidenced by in vitro autoradiograms of the brain.
# [15] = target: T5, CYP46A1; assay: Target occupancy PET study in rhesus monkeys; type: in vivo; design: from tissue; host or cells: brain of living rhesus monkeys; settings: rhesus monkey; dose of 0.9 μmol/kg intravenous, all regions
# Experimental: Four rhesus monkeys (4.8 to 9.3 kg) were anesthetized by intramuscular injection of ketamine (10 mg/kg) and then put on the MRI scanning bed in the supine position. Whole-brain images were acquired. For PET, the subjects were initially anesthetized with ketamine (10 mg/kg, intramuscularly), put on the scanning bed, and maintained under anesthesia with 2% isoflurane and 98% oxygen. All rhesus monkeys were supine, and a stereotactic frame was used to fix the position of the head. […] PET/CT and MR images were co-registered. TACs were derived from the respective volumes of interest and were presented as SUVs, which were decay-corrected to the time of radioligand injection. Whole-blood samples were collected from an arterial catheter to measure radioactivity in whole blood and plasma. […]
# Then, the mixture was injected into a high-performance liquid chromatography (HPLC) system equipped with a semipreparative IIPLC column and an ultraviolet detector with the wavelength set at 254 nm. […] The HPLC fractions were collected at 30-s intervals for 13 min; each fraction was counted with automatic gamma well counter. […] Tissue volumes of distribution (VT) and non-displaceable binding potential (BPND) values were determined from a two-tissue compartment model, with metabolite-corrected arterial input function.
# T4 sequence (Q9Y6A2 whole entry): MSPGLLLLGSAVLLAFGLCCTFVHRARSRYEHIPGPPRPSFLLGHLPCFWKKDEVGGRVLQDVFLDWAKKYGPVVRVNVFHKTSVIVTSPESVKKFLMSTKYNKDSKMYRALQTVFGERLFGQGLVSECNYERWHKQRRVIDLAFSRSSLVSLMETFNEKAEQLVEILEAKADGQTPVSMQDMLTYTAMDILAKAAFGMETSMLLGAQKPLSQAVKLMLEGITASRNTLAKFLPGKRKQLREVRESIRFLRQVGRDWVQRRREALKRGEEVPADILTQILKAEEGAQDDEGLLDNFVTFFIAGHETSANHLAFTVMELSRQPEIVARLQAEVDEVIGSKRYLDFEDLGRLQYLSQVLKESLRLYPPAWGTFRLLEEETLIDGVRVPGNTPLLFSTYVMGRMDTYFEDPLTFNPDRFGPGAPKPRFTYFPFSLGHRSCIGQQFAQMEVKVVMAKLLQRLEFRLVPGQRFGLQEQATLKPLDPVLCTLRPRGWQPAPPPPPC
# T1 sequence (Q9WVK8 whole entry): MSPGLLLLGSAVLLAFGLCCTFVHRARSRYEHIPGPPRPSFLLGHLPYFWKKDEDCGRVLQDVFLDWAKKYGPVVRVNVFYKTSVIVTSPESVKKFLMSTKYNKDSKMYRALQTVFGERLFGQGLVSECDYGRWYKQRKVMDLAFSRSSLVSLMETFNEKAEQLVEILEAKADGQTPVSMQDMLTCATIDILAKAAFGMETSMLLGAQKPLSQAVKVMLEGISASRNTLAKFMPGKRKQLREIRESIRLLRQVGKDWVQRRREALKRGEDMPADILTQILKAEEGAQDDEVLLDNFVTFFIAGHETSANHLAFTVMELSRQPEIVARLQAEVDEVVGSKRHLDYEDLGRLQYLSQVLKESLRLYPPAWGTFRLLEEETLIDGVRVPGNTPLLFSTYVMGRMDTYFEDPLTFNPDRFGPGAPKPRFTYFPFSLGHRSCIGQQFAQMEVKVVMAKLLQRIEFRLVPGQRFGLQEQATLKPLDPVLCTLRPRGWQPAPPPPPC
# T2 sequence (A0ACM8QFK4 29-500): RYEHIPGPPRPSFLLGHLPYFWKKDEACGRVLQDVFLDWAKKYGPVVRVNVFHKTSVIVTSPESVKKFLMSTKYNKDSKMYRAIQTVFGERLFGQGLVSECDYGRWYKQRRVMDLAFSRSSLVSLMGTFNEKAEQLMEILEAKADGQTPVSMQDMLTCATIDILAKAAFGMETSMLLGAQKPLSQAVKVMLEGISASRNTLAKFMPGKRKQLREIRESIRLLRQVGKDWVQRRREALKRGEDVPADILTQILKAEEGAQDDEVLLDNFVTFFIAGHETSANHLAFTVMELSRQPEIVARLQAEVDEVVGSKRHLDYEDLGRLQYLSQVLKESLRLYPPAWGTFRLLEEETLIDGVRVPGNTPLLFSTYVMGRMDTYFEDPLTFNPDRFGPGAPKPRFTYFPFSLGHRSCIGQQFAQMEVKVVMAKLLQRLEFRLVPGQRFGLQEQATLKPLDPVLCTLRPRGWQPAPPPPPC
# T3 sequence (Q9Y6A2 whole entry): as the sequence (Q9Y6A2 whole entry) above
# T5 sequence (I2CYF7 29-500): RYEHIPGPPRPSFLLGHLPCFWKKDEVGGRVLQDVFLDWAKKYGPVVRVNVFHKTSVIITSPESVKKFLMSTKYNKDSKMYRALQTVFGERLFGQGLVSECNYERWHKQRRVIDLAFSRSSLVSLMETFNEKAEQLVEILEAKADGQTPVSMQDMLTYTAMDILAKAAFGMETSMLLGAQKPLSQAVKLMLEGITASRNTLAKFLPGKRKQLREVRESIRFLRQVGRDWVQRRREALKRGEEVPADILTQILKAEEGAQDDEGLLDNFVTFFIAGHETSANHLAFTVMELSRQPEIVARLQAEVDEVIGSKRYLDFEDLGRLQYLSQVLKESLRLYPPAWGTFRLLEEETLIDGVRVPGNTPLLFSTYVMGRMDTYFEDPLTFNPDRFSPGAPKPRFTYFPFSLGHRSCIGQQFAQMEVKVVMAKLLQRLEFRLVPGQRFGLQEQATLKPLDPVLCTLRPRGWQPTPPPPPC
Structure (SMILES),Bmax (amount of available CYP46A1 protein) ([1]; cerebellum) [fmol/g],Bmax (amount of available CYP46A1 protein) ([1]; striatum) [fmol/g],off-target activity [2],stability against radio defluorination [3],stability against radio defluorination [4],stability against radio defluorination [5],stability against radio defluorination [6],brain signal attributed to the intact parent tracer ([7]; brain),"specific signal in the brain ([7]; ex vivo studies, 15, 30, and 45 min after injection)","brain uptake after systemic administration ([7]; rats, intravenous injection, PET)",effective dose [8] [mSv/MBq],cell uptake in transfected cells compared to controls ([9]; HEK cells overexpressing hCYP46A1 vs HEK controls),"SUV15-30 in the caudate and putamen, women versus men [10]",tracer binding in brains of Cyp46A1−/− animals versus control ([11]; Cyp46A1−/− vs Cyp46A1+/+ mice),hippocampal time-activity curves (TACs) in 3xTg-AD mice versus controls [12],"tracer signal of the transfected cell population on co-incubation ([9]; escalating doses, HEK-CYP46A1 cells, 18F-CHL-2205 tracer)",displacement of 18F-CHL-2205 [13],autoradiography signal on co-incubation [14],receptor occupancy at 0.9 µmol/kg [15] [%],"tracer binding in control brains under blockade ([11]; excess dose, Cyp46A1+/+ brains)"
"CN(C(=O)C1CCN(c2cncnc2-c2ccc([18F])cc2)CC1)C1CC1 [18F-CHL-2205, N-cyclopropyl-1-(4-(4-(fluoro-18F)phenyl)pyrimidin-5-yl)-N-methylpiperidine-4-carboxamide]",21.9,117.3,no off-target activity,stable against radio defluorination,stable against radio defluorination,stable against radio defluorination,stable against radio defluorination,Greater than 99%,greater than 90%,rapid tracer uptake into the brain,0.012,fivefold increase,higher in women than in men,signal diminished,consistently higher,–,–,–,–,–
O=C(c1cccnc1-c1ccncc1)N1CCC(O)(Cc2ccccc2)CC1 [soticlestat],–,–,–,–,–,–,–,–,–,–,–,–,–,–,–,attenuated in a dose-dependent manner,competitive displacement,relative signal reduction,> 90,reduced to the signal observed in Cyp46A1−/− animals
C[C@@H](c1ncncc1F)[C@](O)(Cn1cncn1)c1ccc(F)cc1F [voriconazole],–,–,–,–,–,–,–,–,–,–,–,–,–,–,–,–,competitive displacement,–,–,–
